{"source": "ChEMBL document CHEMBL1641395", "about": "“Highly brominated antimicrobial metabolites from a marine Pseudoalteromonas sp” (J Nat Prod, 2010)", "test_system": "Staphylococcus aureus", "experiment": "Antibacterial activity against methicillin-resistant Staphylococcus aureus ATCC 43300 after 12 hrs by Broth microdilution method", "assay_type": "functional, organism-based", "conditions": "ATCC 43300, 12 h", "data": [{"smiles": "Oc1c(Br)cc(Br)cc1-c1cc(Br)cc(Br)c1O", "note": "[BROMOPHENE]", "values": [{"measurement": "IC50", "result": 2140, "unit": "nM"}]}, {"smiles": "Oc1c(Br)cc(Br)cc1-c1[nH]c(Br)c(Br)c1Br", "note": "[PENTABROMOPSEUDILIN]", "values": [{"measurement": "IC50", "result": 100, "unit": "nM"}]}, {"smiles": "Oc1ccc(Br)cc1-c1cc(Br)cc(Br)c1O", "values": [{"measurement": "IC50", "result": 2190, "unit": "nM"}]}, {"smiles": "CN[C@H](CC(C)C)C(=O)N[C@H]1C(=O)N[C@@H](CC(N)=O)C(=O)N[C@H]2C(=O)N[C@H]3C(=O)N[C@H](C(=O)N[C@H](C(=O)O)c4cc(O)cc(O)c4-c4cc3ccc4O)[C@H](O)c3ccc(c(Cl)c3)Oc3cc2cc(c3O[C@@H]2O[C@H](CO)[C@@H](O)[C@H](O)[C@H]2O[C@H]2C[C@](C)(N)[C@H](O)[C@H](C)O2)Oc2ccc(cc2Cl)[C@H]1O", "note": "[VANCOMYCIN]", "values": [{"measurement": "IC50", "result": 910, "unit": "nM"}]}, {"smiles": "Brc1cc(Br)c2oc3c(Br)c(Br)[nH]c3c2c1", "values": [{"measurement": "IC50", "result": 1930, "unit": "nM"}]}]}
